Measured values published in patent US10316017B2, “COT modulators and methods of use thereof” (Gilead Sciences, Inc., priority 2015, dated 2019).

Assays:
[1] = system: TNFα production in LPS-stimulated human monocytes; test: Cot Monocyte TNFα Cell Based Assay; conditions: Homo sapiens, Monocyte, LPS-stimulated human monocytes, TNFα TR-FRET; read-out: EC50 TNF
In short: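 TNFα release quantified by two-antibody TR-FRET, normalised to unstimulated (0%) and LPS-stimulated (100%) wells. Cells got a 1 h compound exposure at 37° C in 0.5% DMSO before 4 h challenge with 50 pg/ml LPS, at 5,000 cells/well.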

[2] = target: T1, human Cot catalytic domain (30-397 amino acids) (Homo sapiens, UniProt P41279); test: High Throughput Cot Biochemical Assay (KinEASE TR-FRET); conditions: Cot KinEASE TR-FRET, 400 μM ATP; read-out: IC50 HTRF
T1 construct: Purified recombinant human Cot catalytic domain (30-397 amino acids) was purchased from Cama Biosciences; purchased Cama Biosciences (so in the source)
T1 sequence (P41279 30-397): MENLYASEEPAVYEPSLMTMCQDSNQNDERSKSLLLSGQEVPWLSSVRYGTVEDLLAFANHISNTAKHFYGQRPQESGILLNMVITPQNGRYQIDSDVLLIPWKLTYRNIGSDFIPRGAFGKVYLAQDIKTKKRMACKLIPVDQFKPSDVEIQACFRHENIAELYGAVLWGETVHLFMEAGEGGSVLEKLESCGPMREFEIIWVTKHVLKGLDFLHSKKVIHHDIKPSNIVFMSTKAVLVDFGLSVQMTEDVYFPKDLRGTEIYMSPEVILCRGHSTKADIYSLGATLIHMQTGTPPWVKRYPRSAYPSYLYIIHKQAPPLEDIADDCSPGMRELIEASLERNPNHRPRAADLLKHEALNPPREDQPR
In short: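 TR-FRET (KinEASE) read-out: Eu-labelled phospho-specific antibody binds XL665-tagged STK3 peptide (1 μM) phosphorylated by 5 nM human Cot kinase domain (residues 30-397). Reaction at 400 μM ATP, pH 7.0 MOPS buffer with 10 mM MgOAc, 1 mM DTT and 0.1% DMSO.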

## Cc1ccccc1[C@H](Nc1cc(C#N)c2ncc(C#N)c(NCC(C)(C)C)c2c1)c1cn(C2(C(F)F)CC2)nn1 [Example 1066, (S)-6-(((1-(1-(difluoromethyl)cyclopropyl)-1H-1,2,3-triazol-4-yl)(o-tolyl)methyl)amino)-4-(neopentylamino)quinoline-3,8-dicarbonitrile]
[1]
  EC50: 85 nM
[2]
  IC50: 10 nM

## Cc1ccccc1[C@H](Nc1cc(C#N)c2ncc(C#N)c(NCC(C)(C)C)c2c1)c1cn(C2(C(F)(F)F)CC2)nn1 [Example 1067, (S)-4-(neopentylamino)-6-((o-tolyl(1-(1-(trifluoromethyl)cyclopropyl)-1H-1,2,3-triazol-4-yl)methyl)amino)quinoline-3,8-dicarbonitrile]
[1]
  EC50: 213 nM
[2]
  IC50: 17 nM

## Cc1c([C@H](Nc2cc(C#N)c3ncc(C#N)c(NCC(C)(C)C)c3c2)c2cn(C3(C(F)(F)F)CC3)nn2)cccc1-n1ccnn1 [Example 1068, (S)-6-(((2-methyl-3-(1H-1,2,3-triazol-1-yl)phenyl)(1-(1-(trifluoromethyl)cyclopropyl)-1H-1,2,3-triazol-4-yl)methyl)amino)-4-(neopentylamino)quinoline-3,8-dicarbonitrile]
[1]
  EC50: 58 nM
[2]
  IC50: 3 nM

## Cc1c([C@H](Nc2cc(Cl)c3ncc(C#N)c(NCC(C)(C)C)c3c2)c2cn(C3(C(F)F)CC3)nn2)cccc1-n1ccnc1 [Example 1069, (S)-6-(((3-(1H-imidazol-1-yl)-2-methylphenyl)(1-(1-(difluoromethyl)cyclopropyl)-1H-1,2,3-triazol-4-yl)methyl)amino)-8-chloro-4-(neopentylamino)quinoline-3-carbonitrile]
[1]
  EC50: 54 nM
[2]
  IC50: 2 nM

## Cc1c([C@H](Nc2cc(Cl)c3ncc(C#N)c(NCC(C)(C)C)c3c2)c2cn(C3(C(F)F)CC3)nn2)cccc1-n1cnnc1 [Example 1070, (S)-8-chloro-6-(((1-(1-(difluoromethyl)cyclopropyl)-1H-1,2,3-triazol-4-yl)(2-methyl-3-(4H-1,2,4-triazol-4-yl)phenyl)methyl)amino)-4-(neopentylamino)quinoline-3-carbonitrile]
[1]
  EC50: 272 nM
[2]
  IC50: 2 nM

## Cc1c([C@H](Nc2cc(Cl)c3ncc(C#N)c(NCC(C)(C)C)c3c2)c2cn(C3(C(F)(F)F)CC3)nn2)cccc1-n1cnnc1 [Example 1071, (S)-8-chloro-6-(((2-methyl-3-(4H-1,2,4-triazol-4-yl)phenyl)(1-(1-(trifluoromethyl)cyclopropyl)-1H-1,2,3-triazol-4-yl)methyl)amino)-4-(neopentylamino)quinoline-3-carbonitrile]
[1]
  EC50: 215 nM
[2]
  IC50: 3 nM

## Cc1c([C@H](Nc2cc(C#N)c3ncc(C#N)c(NCC(C)(C)C)c3c2)c2cn(C3(C(F)(F)F)CC3)nn2)cccc1-n1cnnc1 [Example 1072, (S)-6-(((2-methyl-3-(4H-1,2,4-triazol-4-yl)phenyl)(1-(1-(trifluoromethyl)cyclopropyl)-1H-1,2,3-triazol-4-yl)methyl)amino)-4-(neopentylamino)quinoline-3,8-dicarbonitrile]
[1]
  EC50: ≥ 1000 nM
[2]
  IC50: 3 nM

## Cc1c([C@H](Nc2cc(C#N)c3ncc(C#N)c(NCC(C)(C)C)c3c2)c2cn(C3(C(F)F)CC3)nn2)cccc1-n1cnnc1 [Example 1073, (S)-6-(((1-(1-(difluoromethyl)cyclopropyl)-1H-1,2,3-triazol-4-yl)(2-methyl-3-(4H-1,2,4-triazol-4-yl)phenyl)methyl)amino)-4-(neopentylamino)quinoline-3,8-dicarbonitrile]
[1]
  EC50: ≥ 1000 nM
[2]
  IC50: 1 nM

## CC(C)(C)CNc1c(C#N)cnc2c(Cl)cc(N[C@H](c3cn(C4(C(F)(F)F)CC4)nn3)c3cccc(C#N)c3Cl)cc12 [Example 1074, (S)-8-chloro-6-(((2-chloro-3-cyanophenyl)(1-(1-(trifluoromethyl)cyclopropyl)-1H-1,2,3-triazol-4-yl)methyl)amino)-4-(neopentylamino)quinoline-3-carbonitrile]
[1]
  EC50: 435 nM
[2]
  IC50: 48 nM

## CC(C)(C)CNc1c(C#N)cnc2c(Cl)cc(N[C@H](c3cn(C4(C(F)F)CC4)nn3)c3cccc(C#N)c3Cl)cc12 [Example 1075, (S)-8-chloro-6-(((2-chloro-3-cyanophenyl)(1-(1-(difluoromethyl)cyclopropyl)-1H-1,2,3-triazol-4-yl)methyl)amino)-4-(neopentylamino)quinoline-3-carbonitrile]
[1]
  EC50: 185 nM
[2]
  IC50: 23 nM

## Cc1cc(F)ccc1[C@H](Nc1cc(Cl)c2ncc(C#N)c(NCC(C)(C)C)c2c1)c1cn(C2(C(F)F)CC2)nn1 [Example 1076, (S)-8-chloro-6-(((1-(1-(difluoromethyl)cyclopropyl)-1H-1,2,3-triazol-4-yl)(4-fluoro-2-methylphenyl)methyl)amino)-4-(neopentylamino)quinoline-3-carbonitrile]
[1]
  EC50: 182 nM
[2]
  IC50: 37 nM

## Cc1c([C@H](Nc2cc(C#N)c3ncc(C#N)c(NCC(C)(C)C)c3c2)c2cn(C3(C(F)F)CC3)nn2)cccc1-n1ccnc1 [Example 1077]
[1]
  EC50: 77 nM
[2]
  IC50: 2 nM

## [2H][C@](Nc1cc(C#N)c2ncc(C#N)c(NCC(C)(C)C)c2c1)(c1ccc(F)cc1)c1cn(Cc2c(F)cccc2F)nn1 [Example 1078, (S)-6-(((1-(2,6-difluorobenzyl)-1H-1,2,3-triazol-4-yl)(4-fluorophenyl)methyl-d)amino)-4-(neopentylamino)quinoline-3,8-dicarbonitrile]
[1]
  EC50: 175 nM
[2]
  IC50: 12 nM

## CC(C)(C)CNc1c(C#N)cnc2c(C#N)cc(N[C@H](c3cn(C4(C(F)(F)F)CC4)nn3)c3cccc(C#N)c3Cl)cc12 [Example 1079, (S)-6-(((2-chloro-3-cyanophenyl)(1-(1-(trifluoromethyl)cyclopropyl)-1H-1,2,3-triazol-4-yl)methyl)amino)-4-(neopentylamino)quinoline-3,8-dicarbonitrile]
[1]
  EC50: 220 nM
[2]
  IC50: 19 nM

## CC(C)(C)CNc1c(C#N)cnc2c(C#N)cc(N[C@H](c3cn(C4(C(F)F)CC4)nn3)c3cccc(C#N)c3Cl)cc12 [Example 1080, (S)-6-(((2-chloro-3-cyanophenyl)(1-(1-(difluoromethyl)cyclopropyl)-1H-1,2,3-triazol-4-yl)methyl)amino)-4-(neopentylamino)quinoline-3,8-dicarbonitrile]
[1]
  EC50: 148 nM
[2]
  IC50: 7 nM

## Cc1c([C@H](Nc2cc(C#N)c3ncc(C#N)c(NCC(C)(C)C)c3c2)c2cn(C3(C(F)(F)F)CC3)nn2)cccc1-n1cnnn1 [Example 1081, (S)-6-(((2-methyl-3-(1H-tetrazol-1-yl)phenyl)(1-(1-(trifluoromethyl)cyclopropyl)-1H-1,2,3-triazol-4-yl)methyl)amino)-4-(neopentylamino)quinoline-3,8-dicarbonitrile]
[1]
  EC50: 219 nM
[2]
  IC50: 3 nM

## Cc1c([C@H](Nc2cc(C#N)c3ncc(C#N)c(NCC(C)(C)C)c3c2)c2cn(C3(C(F)F)CC3)nn2)cccc1-n1cnnn1 [Example 1082, (S)-6-(((1-(1-(difluoromethyl)cyclopropyl)-1H-1,2,3-triazol-4-yl)(2-methyl-3-(1H-tetrazol-1-yl)phenyl)methyl)amino)-4-(neopentylamino)quinoline-3,8-dicarbonitrile]
[1]
  EC50: 262 nM
[2]
  IC50: 2 nM
